Reference: patent US20150133450A1, “METHODS AND COMPOSITIONS USEFUL FOR TREATING DISEASES INVOLVING BCL-2 FAMILY PROTEINS WITH QUINOLINE DERIVATIVES” (Eutropics Pharmaceuticals, Inc., priority 2012, published 2015)

What was measured:
Bcl-2 1863 cell line = assay: DAPI fluorescence cell-based cytotoxicity (apoptosis) assay, Bcl-2 1863; parameters: species or system mouse; conditions: 1 μM, 500 nM, 250 nM, 125 nM; 24 hours; relative to Mcl-1 1780; FIG. 2
Protocol: (§1) The mouse leukemia-derived cell lines Mcl-1-1780 and Bcl-2-1863 (Ryan et al., Proc. Nat. Acad. Sci USA, 107, 12895-12900, which is hereby incorporated by reference in its entirety) were obtained under license from Dana Farber Cancer Institute. Cells were grown in RPMI 1640 medium (GIBCO-BRL) with 2 mM L-glutamine, 4.5 g/L glucose, 1.0 mM sodium pyruvate and 5% fetal bovine serum. Cells were expanded in tissue culture in appropriate media and then sub-cultured into 96-well plates at a seeding density of 20,000 cells per well. After incubation for 24 hours, cells were treated with compounds that are titrated into appropriate medium with FCS. Four concentrations of compound were used: 1 μM, 500 nM, 250 nM, and 125 nM. Assay was run in triplicate for each compound at each concentration and averages were calculated. Cells were treated with compound for 24 hours, then fixed with methanol and stained with the DNA-binding agent DAPI (4′,6-diamidino-2-phenylindole). The cells were then examined by fluorescent microscopy; cells in which caspase 3 and caspase 7 have not been activated will emit at […] when excited by […] light. Caspase-mediated cleavage of nucleosomal proteins causes condensed, pycnotic nuclear morphology that may be measured by cell counting.

DHL-10 cell line = assay: In situ mitochondrial cytochrome c release assay, DHL-10; format: cell-based; conditions: semi-permeabilized cells, 1 hour; Bax/Bak-deficient cell line; FIG. 3
Text: (§2) The on-target activity of compound 12 was validated. Changes in mitochondrial integrity were observed utilizing anti-cytochrome c conjugated to Alexa488 (BD). When the mitochondria are intact, they retain cytochrome c and have bright, punctate staining with the antibody whereas cells with compromised mitochondrial integrity will lose cytochrome c and will not stain with the antibody. This can be observed by microscopy as well as measured by a shift in fluorescence on the FL1 channel of a flow cytometer.
(§3) The selective response of mitochondria in semi-permeabilized cell lines to the compounds was observed. The assay was adapted from (Campos et al. (2006) Cytometry Part A. 69(A):515-523, which is hereby incorporated by reference in its entirety).
(§4) Suspension cell lines SUDHL6, SUDHL8, and SUDHL10 were grown in RPMI, washed once in 1×PBS and re-suspended at a concentration of 2e6/ml in assay buffer with 0.0025% Digitonin. Assay buffer; 300 mM Trehalose, 10 mM HEPES-KOH pH 7.7, 80 mM KCl, 1 mM EGTA, 1 mM EDTA, 0.1% BSA, 5 mM Succinate. […] Cytochrome c loss was measured by microscopy. At least 100 cells per treatment were counted and scored as positive for cytochrome c loss if they lacked staining. In both methods DMSO was calculated as 0% cytochrome c loss and the Bim response for DHL6 was used to determine 100% cytochrome c loss.

DHL-8 cell line = assay: In situ mitochondrial cytochrome c release assay, DHL-8; format: cell-based; conditions: semi-permeabilized cells, 1 hour; reduced mitochondrial priming; FIG. 3
Text: as §2, §3, §4

Mcl-1 1780 cell line = assay: DAPI fluorescence cell-based cytotoxicity (apoptosis) assay, Mcl-1 1780; parameters: species or system mouse; conditions: 1 μM, 500 nM, 250 nM, 125 nM; 24 hours; FIG. 2
Protocol: as §1

DHL-6 cell line = assay: In situ mitochondrial cytochrome c release assay, DHL-6; format: cell-based; conditions: semi-permeabilized cells, 1 hour; Bax/Bak-functional cell line; FIG. 3
Text: as §2, §3, §4

Compound: CCN1CCN(C(c2ccc(C(F)(F)F)cc2)c2ccc3cccnc3c2O)CC1 (centres unmarked) [Compound 12, 7-((4-ethylpiperazin-1-yl)(4-(trifluoromethyl)phenyl)methyl)quinolin-8-ol]
- Induction of apoptosis (DAPI nuclear morphology) in Bcl-2 1863 (Bcl-2 1863 cell line): significantly lesser degree
- Cytochrome c release, DHL-10 (DHL-10 cell line): lack of activity
- Cytochrome c release, DHL-8 (DHL-8 cell line): reduced activity
- Induction of apoptosis (DAPI nuclear morphology) in Mcl-1 1780 (Mcl-1 1780 cell line): induce apoptosis
- Cytochrome c release, DHL-6 (DHL-6 cell line): activity
